Where “and” joins values, the source holds several entries; their conditions need not be identical. Identical values can stand only once. Like-named read-outs stand apart in the source and are kept apart here.
Tests used:
HIV-1 [1] = test system: HIV-1; design: method as in ref 11 = [11]; PMID 32612233; doi:10.1038/s41586-020-2443-1; 11 Link JO et al Clinical targeting of HIV capsid protein with a long-acting small molecule Nature 2020 584 7822 614 618 10.1038/s41586-020-2443-1 32612233 PMC8188729; details: cited from earlier work
SHIV-SF162P3 = experiment: Antiviral assay in rhesus PBMCs acutely infected with SHIV.SF162P3; type: cell-based, rhesus macaque; details: for SHIV Replication (Mean): representative assay, N 3
Description: Freshly isolated PBMCs from 3 male Indian rhesus macaque (Macaca mulatta) donors were obtained from Human Cells Biosciences. Rhesus PBMCs were cultured in RPMI-1640 cell culture media (Life Technologies) supplemented with 10% heat-inactivated FBS (Hyclone), 2 mM glutamine, and 100 units/mL penicillin plus 100 μg/mL streptomycin (complete RPMI). Prior to their use in antiviral assays, PBMCs from 3 independent donors were pooled and activated at a density of 3 × 10^6 cells per mL for 72 hours at 37°C by addition of 1 μg/mL PHA (Sigma-Aldrich) and 50 units/mL recombinant human IL-2 (Roche Diagnostics).
Briefly, PHA/IL-2–stimulated rhesus PBMCs were infected in bulk culture with SHIV.SF162P3 at a concentration of 130 pg p27 equivalent per million PBMCs. Cells were maintained in suspension by gently rocking the cultures mixed with virus inoculum for 3 hours at 37°C. Cells were then pelleted by centrifugation at 500g for 5 minutes, washed twice with complete RPMI to remove any unadsorbed virus, and seeded into 96-well plates at a cell density of 2 × 10^5 cells per well in 100 μL. […] Cultures were incubated in a 5% CO2 incubator at 37°C for 7 days. The cell-free supernatants derived from the PBMC cultures were harvested 7 days after infection, and the amount of SHIV present was quantified using a SIV p27 antigen capture ELISA assay (item 5436, Advanced Bioscience Laboratories Inc.) performed according to the manufacturer’s protocol.

[2] = through week 52 of treatment across clinical studies; cited from earlier work
HIV-1 [3] = experiment: Antiviral assay against HIV-1 in MT-4 cells; type: cell-based; details: HIV-1IIIb in MT-4 cells
HIV-1 [4] = test system: HIV-1; design: method as in ref 11, 12 = [11]; PMID 32612233; doi:10.1038/s41586-020-2443-1; 11 Link JO et al Clinical targeting of HIV capsid protein with a long-acting small molecule Nature 2020 584 7822 614 618 10.1038/s41586-020-2443-1 32612233 PMC8188729 || [12]; 12 Yant SR, et al. GS-6207, A potent and selective first-in-class long-acting HIV-1 capsid inhibitor. Conference on Retroviruses and Opportunistic Infections. https://www.croiconference.org/abstract/g; details: HIV-1 in MT-4 cells; cited from earlier work
[5] = cited from earlier work
HIV-1 [6] = experiment: Antiviral assay in human PBMCs infected with HIV-1 clinical isolates; type: cell-based; details: HIV-1, human PBMCs; EC95 x human plasma shift
[7] = Safety and tolerability of subcutaneous LEN dosing; type: in vivo, rhesus macaques
From the text: Injections at all dose levels were generally well tolerated without notable clinical observations. […] Grade 1 edema and/or erythema was observed across multiple time points and animals from all 5 dose groups and was fully resolved by week 11 after dose.
All animals were housed at Bioqual Inc. For the in vivo SHIV stock titration study, 8 untreated outbred Indian-origin male rhesus macaques aged 3–5 years were challenged intrarectally per round for a total of 5 challenge rounds using increasing virus doses ranging from 0.625 to 100 TCID50, with the 100 TCID50 round performed twice for increased resolution (Supplemental Table 2). Plasma viral load was measured to confirm the infection status. […] Injection sites were monitored daily by veterinary staff for 2 weeks and then weekly through the end of study. On week 7, 11 animals were challenged by the intrarectal route with 1 mL RPMI containing 100 TCID50 SHIV-SF162P3. Whole blood was collected and processed into plasma and PBMCs as necessary for the assessment of routine hematology and clinical chemistry, viral load analysis, serology, and the bioanalysis of drug levels. Animals were considered protected if they remained SHIV negative by a plasma PCR assay and seronegative by enzyme immunoassay through week 10 after challenge.

[8] = 927 mg sc twice-yearly after 600 mg oral on days 1 and 2

CC(C)(C#Cc1ccc(-c2ccc(Cl)c3c(NS(C)(=O)=O)nn(CC(F)(F)F)c23)c([C@H](Cc2cc(F)cc(F)c2)NC(=O)Cn2nc(C(F)(F)F)c3c2C(F)(F)[C@@H]2C[C@H]32)n1)S(C)(=O)=O [LEN, Lenacapavir]
EC50 (HIV-1 [1]; 23 HIV-1 clinical isolates, mitogen-activated human PBMCs, 7-day assay): 0.05 ± 0.03 nM | EC95 (HIV-1 [1]; 23 HIV-1 isolates, human PBMCs): 0.12 nM and 0.12 ± 0.07 nM | SHIV Replication (Mean) (SHIV-SF162P3; LEN 0.011 nM): 98 | SHIV Replication (Mean) (SHIV-SF162P3; LEN 0.034 nM): 91 | SHIV Replication (Mean) (SHIV-SF162P3; LEN 0.103 nM): 99 | SHIV Replication (Mean) (SHIV-SF162P3; LEN 0.309 nM): 60 | SHIV Replication (Mean) (SHIV-SF162P3; LEN 0.926 nM): 18 | SHIV Replication (Mean) (SHIV-SF162P3; LEN 2.778 nM): 1 | SHIV Replication (Mean) (SHIV-SF162P3; LEN 8.333 nM): 0 | SHIV Replication (Mean) (SHIV-SF162P3; LEN 25 nM): 0 | EC50 (SHIV-SF162P3; Macaca mulatta, PBMC, 168 h): 0.39 ± 0.16 nM | paEC95 (protein-adjusted EC95) (SHIV-SF162P3; SHIV, rhesus PBMCs, EC95 x rhesus plasma shift): 8.80 nM and 8.8 nM and 8.80 ± 3.69^E nM | EC95 (SHIV-SF162P3; SHIV-SF162P3, rhesus PBMCs, EC95 = EC50 x (95/5)^1/n): 0.91 nM and 0.91 ± 0.38 nM | serious adverse events or laboratory abnormalities [2]: no serious adverse events or laboratory abnormalities related to LEN | Hill coefficient (n) (HIV-1 [3]): 3.51 ± 0.31 | EC50 (HIV-1 [4]): 0.1 nM | time to reach efficacious target concentration after injection ([5]; 927 mg sc after oral lead-in): ≤ 2 h | efficacious target plasma concentration [5, 8]: 15.5 ng/mL | efficacious target plasma concentration (human target Ctrough) [5, 8]: 16 nM | paEC95 (protein-adjusted EC95) (HIV-1 [6]): 2.01 nM and 2.01 ± 1.22 nM | safety and tolerability of subcutaneous injection ([7]; all dose levels tested, 5-75 mg/kg): safe and well tolerated | time by which Grade 1 edema and/or erythema was fully resolved ([7]; male, outbred Indian-origin, rhesus monkey, in vivo): ≤ 11 week after dose | Hematology analyses ([7]; rhesus monkey, in vivo): no abnormal values
